Laboratory results reported in US20090317497A1, “Compositions and methods for promoting brain and cardiovascular health, preventing and treating brain and cardiovascular disorders” (priority 2007, published 2009).

Tests used:
[1] = system: Wistar rats with stroke induced middle cerebral artery occlusion (MCAO); assay: Chronic MCAO stroke study, Wistar (Example 7); assay type: in vivo; conditions: Braintone 500 mg/kg, Ginkgo 20, Aspirin 10, Losartan 1 mg/kg/day, means +/- SD, scale 0 to 5
Protocol: (§1) 96 Wistar rats and 96 SHR, weighing 250-300 g, were randomly divided into eight treatment groups respectively (see Table 14), Remembrance (Formulation A) and other comparative drugs were dissolved in distilled water and administrated orally once daily for two months (Table 14: dosage of administration).
Oral administration of Remembrance/other treatments (2 months)→MACO→Continue the corresponding treatment after MACO (1 month)→Measurements
The differentiation of […] capillaries and evaluation of morphological changes after cerebral ischemia were performed using Hematoxylin and Eosin Staining. Random slides of the rat brains were used for the staining.

[2] = system: spontaneous hypertension rats (SHR) with stroke induced middle cerebral artery occlusion (MCAO); assay: Chronic MCAO stroke study, SHR (Example 7); assay type: in vivo; conditions: Braintone (500), Ginkgo 20, Aspirin 10, Losartan 1 mg/kg/day, means +/- SD, scale 0 to 5
[3] = system: apoptosis-induced nuclear DNA fragmentation in cerebral cortex; assay: Apoptosis assay, TUNEL staining, Wistar (Example 7); assay type: in vivo, Wistar rats; conditions: after 1 month of MCAO, doses of Table 14
Excerpt: TUNEL staining was used for detection of apoptosis-induced nuclear DNA fragmentation via fluorescence microscopy.
Apoptotic cells were identified by using TUNEL staining.

[4] = system: apoptosis-induced nuclear DNA fragmentation in cerebral cortex; assay: Apoptosis assay, TUNEL staining, SHR (Example 7); assay type: in vivo; conditions: doses of Table 14
Excerpt: TUNEL staining was used for detection of apoptosis-induced nuclear DNA fragmentation via fluorescence microscopy. Apoptotic cells were identified by using TUNEL staining.

[5] = system: oxidized DNA base products; assay: DNA damage, oxidized DNA base products by GC/MS, Wistar (Example 7); assay type: in vivo, Wistar rats; conditions: stroke-induced, Aspirin 10, Losartan 1 mg/kg/day
[6] = system: Spontaneous Hypertensive Rats (SHR) with MCAO; assay: 2-week MCAO stroke study, SHR (Example 4); assay type: in vivo
Protocol: (§2) Wistar and SHR rats were randomly divided into four treatment groups and one sham group (see Table 7 and 8).
(§3) The morphological changes were evaluated after cerebral ischemia. The brains were dipped in M-1 Embedding Matrix for frozen sectioning, frozen in liquid nitrogen and stored at −80 deg C. The cerebral sections were then cut from the middle part of the frozen brain at 20 um. 4 to 6 sections were obtained from each brain for HE staining. HE staining of sections was performed to differentiate capillaries, after which they were covered with crystal mount. Cerebral sections were examined under the microscope and photographed.

Wistar Rats with MCAO = assay: 2-week MCAO stroke study, Wistar (Example 4); assay type: in vivo
Protocol: as §2, §3

[7] = system: oxidized DNA base products; assay: Evaluation of DNA damage in blood DNA by GC/MS (Example 5); assay type: in vivo, Wistar rats and SHR; conditions: Stroke + treatment, doses of Table 9; mean ± S.D.; unit not given in Table 11 (Table 10: nmol/mg DNA)
Protocol: 60 Wistar rats and 60 SHR were divided into six treatment groups separately (excluding the vehicle group). The single blinded experiment was conducted with Formulation B and other drugs being administrated once daily orally (see Table 9). After a week treatment, Wistar rats underwent a MCAO procedure to induce stroke. Treatment was continued for another week after surgery before the rats were sacrificed by decapitation. DNA extraction and DNA base damage analysis was then performed. DNA was extracted from blood samples collected from different treatment groups of Wistar rats and SHR using the phenol-chloroform method. The DNA samples were then analyzed by GC/MS.

AT2 receptor = assay: RT-PCR gene expression in left cortex after MCAO: AT2 (Example 6); assay type: in vivo, Wistar rats; conditions: stroke operated groups, doses of Table 12; compared with stroke operated vehicle group (p<0.05)
Excerpt: (§4) The brains were collected for further gene expression studies. The cerebral left cortexes containing infarct area were separated.

Bax = assay: RT-PCR gene expression in left cortex after MCAO: Bax (Example 6); assay type: in vivo, Wistar rats; conditions: stroke-operated group, doses of Table 12; compared with stroke operated vehicle group (p<0.05)
Excerpt: as §4

Fas = assay: RT-PCR gene expression in left cortex after MCAO: Fas (Example 6); assay type: in vivo, Wistar rats; conditions: stroke-operated group, doses of Table 12; compared with stroke operated vehicle group
Excerpt: as §4

BcL-xL [8] = assay: RT-PCR gene expression in left cortex after MCAO: BcL-xL (Example 6); assay type: in vivo, Wistar rats; conditions: stroke operated, doses of Table 12
Excerpt: as §4

BcL-xS [9] = assay: RT-PCR gene expression in left cortex after MCAO: BcL-xS (Example 6); assay type: in vivo, Wistar rats; conditions: stroke operated, doses of Table 12; compared with stroke operated vehicle group (p<0.05)
Excerpt: as §4

BcL-xL [10] = assay: Gene expression Bcl-xL, Wistar (Example 7); assay type: in vivo, Wistar rats; conditions: Losartan 1 mg/kg/day, compared with vehicle group (p<0.01)
Protocol: as §1
(§5) Glyceraldehydes-3-[…] dehydrogenase (GAPDH) was used as the internal standard gene. Primers sequences of GAPDH, VEGF, eNOS, ACE, AT1, AT2, Fas, Bax, Bcl-xL and Bcl-xS were used in this study.

Bcl-xS [11] = assay: Gene expression Bcl-xS, SHR (Example 7); assay type: in vivo; conditions: doses of Table 14, vs Vehicle group
Protocol: as §1, §5

[12] = Inhibition of Pyrogallol Red Bleaching by Hypochlorous Acid; assay type: biochemical; conditions: 10 mg/ml; 125 uM HOCL; pH 7.4, 37 deg. C.; 542 nm
Protocol: Pyrogallol Red was dissolved in 100 mM buffer at 37 deg. C., pH 7.4, after which 125 uM HOCL was added and incubated with 10 mg/ml ascorbic acid and other select herbal extracts including two batches of Formulation B. The absorbance values of the mixtures in the presence and absence of the antioxidant were recorded by UV visible spectrophotometer at 542 nm.

Inhibition of ABTS Assay = assay type: biochemical; conditions: 10 ul of 10 mg/ml in 990 ul ABTS reagent; 2 minutes; 734 nm
Protocol: 10 ul of 10 mg/ml of select herbal extracts and two batches of Formulation B were mixed with 990 ul of ABTS reagent and incubated for 2 minutes before the absorbance was measured by UV visible spectrophotometer at 734 nm.

[13] = MCAO, Formulation B 500 mg/kg/day, Losartan 1 mg/kg/day
[14] = MCAO, Formulation B 500 mg/kg/day, Losartan 1 mg/kg/day, day 13

Row | Structure (SMILES) | amount of DNA damage compared to Remembrance 500 mg group [5] | 2OH Adenine [7] | 5(OH, Me) Uracil [7] | 5CI Uracil [7] | 5Formyl Uracil [7] | 5OH Cytosine [7] | 5OH Uracil [7] | 5OH, Me Hydantoin [7] | 8OH Adenine [7] | 8OH Guanine [7] | FAPy Adenine [7] | FAPy Guanine [7] | Hypoxanthine [7] | Thymine Glycol (cis) [7] | Xanthine [7] | AT2 expression (AT2 receptor) | Bax gene expression (Bax) | Fas expression (Fas) | BcL-xL up or down regulation (BcL-xL [8]) | BcL-xS expression (BcL-xS [9]) | also measured
1 | CC(=O)Oc1ccccc1C(=O)O [Aspirin] | higher amount of DNA damage | – | – | – | – | – | – | – | – | – | – | – | – | – | – | – | – | – | – | – | Neurological score, 1 day after stroke [1]: 1 ± 1.73; Neurological score, 1 day before decapitation [1]: 2 ± 2.74; Neurological score, 15 days after stroke [1]: 2 ± 2.45; Neurological score, 1 day after stroke [2]: 1.72 ± 1.73; Neurological score, 1 day before decapitation [2]: 1.54 ± 2.15; Neurological score, 15 days after stroke [2]: 0.63 ± 1.84; apoptosis (TUNEL staining) in cerebral cortex [3]: reduction in apoptosis; apoptosis (TUNEL staining) in cerebral cortex [4]: reduction in apoptosis
2 | CCCCc1nc(Cl)c(CO)n1Cc1ccc(-c2ccccc2-c2nn[nH]n2)cc1 [Losartan] | higher amount of DNA damage | 0.02 ± 0.03 | 0.04 ± 0.03 | 0.02 ± 0.01 | 0.01 ± 0.01 | 0.01 ± 0.01 | 0.01 ± 0.01 | 0.10 ± 0.02 | 0.05 ± 0.04 | 0.13 ± 0.04 | 0.09 ± 0.03 | 0.03 ± 0.03 | 22.21 ± 8.01 | 2.20 ± 0.15 | 1.51 ± 0.32 | significantly reduced | significant effect in down regulating | no significant effect | did not have any significant effects | significantly reduced expression | infarct volume [6, 13]: 5.22%; mortality rate [6, 14]: 28.6%; number of capillaries, HE staining ([6]; after MCAO): 15 capillaries; infarct volume (Wistar Rats with MCAO; [13]): 2.41%; mortality rate (Wistar Rats with MCAO; [14]): 0%; number of capillaries, HE staining (Wistar Rats with MCAO; after MCAO): 22 capillaries; Bcl-xL expression (BcL-xL [10]): significant fold decrease; Bcl-xS expression (Bcl-xS [11]): up-regulating effects
3 | CCOC(=O)[C@H](CCc1ccccc1)N[C@@H](C)C(=O)N1[C@H](C(=O)O)C[C@@H]2CCC[C@@H]21 [Ramipril] | – | 0.03 ± 0.02 | 0.03 ± 0.00 | 0.01 ± 0.00 | 0.50 ± 0.03 | 0.05 ± 0.01 | 0.06 ± 0.00 | 0.04 ± 0.02 | 0.03 ± 0.01 | 0.13 ± 0.07 | 0.08 ± 0.03 | 0.03 ± 0.01 | 18.12 ± 11.18 | 0.68 ± 0.31 | 2.61 ± 1.64 | significantly reduced | significant effect in down regulating | no significant effect | did not have any significant effects | significantly reduced expression | –
4 | O=C1O[C@H]([C@@H](O)CO)C(O)=C1O [ascorbic acid] | – | – | – | – | – | – | – | – | – | – | – | – | – | – | – | – | – | – | – | – | pyrogallol red bleaching inhibition [12]: ~100%; scavenging effect of ABTS (Inhibition of ABTS Assay): 100%
